Tests used:
[1] = biological target: T1, SSTR5 (Homo sapiens, UniProt P35346); experiment: Functional assay of inhibition of SSTR5 mediated cyclic AMP production in SSTR5 expressing CHO cells; type: cell-based, human; conditions: forskolin (FSK) plus SS-28, read-out: cAMP IC50
[2] = biological target: T1, SSTR5; experiment: SSTR5 receptor-ligand binding assay, CHO-K1 cell membranes, 125I-SRIF radioligand; set-up: expressed in transfected cells; conditions: Table 4, read-out: Bnd IC50
Protocol: The receptor-ligand binding assays of all 5 subtype of SSTRs were performed with membranes isolated from Chinese hamster ovary (CHO)-K1 cells stably expressing the cloned human somatostatin receptors in 96-well format as previous reported. (Yang et al. PNAS 95:10836-10841, (1998), Birzin et al. Anal. Biochem. 307:159-166, (2002)).
The stable cell lines for SSTR1-SSTR5 were developed by stably transfecting with DNA for all five SSTRs using Lipofectamine. Neomycin-resistant clones were selected and maintained in medium containing 400 μg/mL G418 (Rohrer et al. Science 282:737-740, (1998)). Binding assays were performed using (3-125I-Tyr11)-SRIF-14 or (3-125I-Tyrl 1)-SRIF-28 as the radioligand (used at 0.1 nM) and The Packard Unifilter assay plate. The assay buffer consisted of 50 mM TrisHCl (pH 7.8) with 1 mM EGTA, 5 mM MgCl2, leupeptin (10 μg/mL), pepstatin (10 μg/mL), bacitracin (200 μg/mL), and aprotinin (0.5 μg/mL). CHO-K1 cell membranes, radiolabeled somatostatin, and unlabeled test compounds were resuspended or diluted in this assay buffer. Unlabeled test compounds were examined over a range of concentrations from 0.01 nM to 10,000 nM. The Ki values for compounds were determined as described by Cheng and Prusoff Biochem Pharmacol. 22:3099-3108 (1973).

T1 sequence (P35346 whole entry): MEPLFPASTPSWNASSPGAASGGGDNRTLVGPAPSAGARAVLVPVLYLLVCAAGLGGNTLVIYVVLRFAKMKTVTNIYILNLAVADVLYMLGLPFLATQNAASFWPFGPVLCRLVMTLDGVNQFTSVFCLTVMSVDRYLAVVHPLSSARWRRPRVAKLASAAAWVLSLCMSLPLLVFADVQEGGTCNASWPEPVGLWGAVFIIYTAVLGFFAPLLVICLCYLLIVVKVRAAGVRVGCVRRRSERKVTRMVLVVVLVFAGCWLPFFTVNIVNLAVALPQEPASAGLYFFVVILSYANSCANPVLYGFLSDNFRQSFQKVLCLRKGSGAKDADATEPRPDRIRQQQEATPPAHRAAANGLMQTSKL

| IC50 [1] [nM] | IC50 [2] [nM] | Compound |
| --- | --- | --- |
| 1.3 | 7.5 | CCOc1cc(CN2CCC3(CC2)CC(c2ccc(C(=O)O)cc2)=NO3)ccc1Cl [Example 12, 4-[8-(4-Chloro-3-ethoxybenzyl)-1-oxa-2,8-diazaspiro[4.5]dec-2-en-3-yl]benzoic acid] |
| 2.9 | 2.9 | CC(C)Oc1ccc(-c2ccc(F)c(F)c2)c(CN2CCC3(CC2)CC(c2ccc(C(=O)O)cc2)=NO3)c1 [Example 13, 4-(8-{[3′,4′-Difluoro-4-(propan-2-yloxy)biphenyl-2-yl]methyl}-1-oxa-2,8-diazaspiro[4.5]dec-2-en-3-yl)benzoic acid] |
| 11 | 12 | CCOc1cc(CN2CCC3(CC2)CC(c2ccc(C(=O)O)cc2)=NO3)ccc1-c1nccs1 [Example 18, 4-{8-[3-Ethoxy-4-(1,3-thiazol-2-yl)benzyl]-1-oxa-2,8-diazaspiro[4.5]dec-2-en-3-yl}benzoic acid] |
| 0.94 | 1.5 | CCOc1cc(CN2CCC3(CC2)CC(c2ccc(C(=O)O)cc2)=NO3)c(-c2nccs2)cc1C [Example 19, 4-{8-[5-Ethoxy-4-methyl-2-(1,3-thiazol-2-yl)benzyl]-1-oxa-2,8-diazaspiro[4.5]dec-2-en-3-yl}benzoic acid] |
| 1.8 | 2.3 | CC(C)(C)n1cc(CN2CCC3(CC2)CC(c2ccc(C(=O)O)cc2)=NO3)c(-c2ccc(F)c(Cl)c2)n1 [Example 24] |
| 2.6 | 1.2 | CCOc1cc(CN2CCC3(CC2)CC(c2ccc(C(=O)O)cn2)=NO3)cc(OCC)c1-c1ccc(F)cc1 [Example 25, 6-{8-[(2,6-Diethoxy-4′-fluorobiphenyl-4-yl)methyl]-1-oxa-2,8-diazaspiro[4.5]dec-2-en-3-yl}pyridine-3-carboxylic acid] |
| 0.32 | 0.33 | CCOc1cc(CN2CCC3(CC2)CC(c2ccc(C(=O)O)cc2)=NO3)c(-c2ccc(F)nc2)cc1C [Example 26, 4-{8-[5-Ethoxy-2-(6-fluoropyridin-3-yl)-4-methylbenzyl]-1-oxa-2,8-diazaspiro[4.5]dec-2-en-3-yl}benzoic acid] |
| 8.8 | 10 | CC(C)(C)n1cc(CN2CCC3(CC2)CC(c2ccc(C(=O)O)cn2)=NO3)c(-c2ccc(F)c(Cl)c2)n1 [Example 27, 6-(8-{(1-tert-Butyl-3-(3-chloro-4-fluorophenyl)-1H-pyrazol-4-yl]methyl}-1-oxa-2,8-diazaspiro[4.5]dec-2-en-3-yl)pyridine-3-carboxylic acid] |
| 5.6 | 0.99 | CCOc1cc(CN2CCC3(CC2)CC(c2ccc(C(=O)O)cn2)=NO3)c(-c2ccc(F)c(F)c2F)cc1C [Example 29, 6-{8-[(4-Ethoxy-2′,3′,4′-trifluoro-5-methylbiphenyl-2-yl)methyl]-1-oxa-2,8-diazaspiro[4.5]dec-2-en-3-yl}pyridine-3-carboxylic acid] |
| 0.76 | 0.41 | CCOc1ccc(-c2ccc(F)c(F)c2F)c(CN2CCC3(CC2)CC(c2ccc(C(=O)O)cn2)=NO3)c1 [Example 30, 6-{8-[(4-Ethoxy-2′,3′,4′-trifluorobiphenyl-2-yl)methyl]-1-oxa-2,8-diazaspiro[4.5]dec-2-en-3-yl}pyridine-3-carboxylic acid] |
